From paper PMC7645366 (EMBO Molecular Medicine, 2020)
Where “and” joins values, the source holds several entries; their conditions need not be identical. Equal entries are not always repeated. No end group written: not given here.

Assays:
[1] = test system: L. monocytogenes type 1; assay: Hemolytic activity of whole bacteria, L. monocytogenes; format: cell-based, Listeria monocytogenes; details: 100 μM peptide
Description: All samples were assayed in triplicates.

[2] = test system: LC3B; format: cell-based, human
[3] = molecular target: T1, PLY (Streptococcus pneumoniae serotype 4, UniProt P0C2J9); format: cell-based
[4] = test system: S. pneumoniae T4; assay: Zebrafish embryo infection model, survival; format: in vivo, zebrafish (Danio renio); details: 500 CFU T4 microinjected into yolk sac, co-administration 1 nM
Description: The AB strain of zebrafish embryos (Danio renio) was collected within first hours post‐fertilization (hpf) from the zebrafish core facility at Karolinska Institutet, Stockholm, and maintained at 28.5°C in E3 medium (5.0 mM NaCl, 0.17 mM KCl, 0.33 mM CaCl2, 0.33 mM MgSO4). […] Microinjection was done using a glass needle (Harvard apparatus, Quebec, Canada) controlled with a micromanipulator Narishige MN‐153 (Narishige International Limited, London, UK) connected to an Eppendorf FemtoJet express (Eppendorf AG, Hamburg, Germany). The injected volume was previously optimized by injecting of a droplet into mineral oil over a scale bar. The embryos were randomly assigned to the treatment groups and a minimum of 156 embryos/group was used. To determine the actual number of bacteria in the injected volume, one drop was collected into the agar plates, and 1–3 embryos were digested and plated just immediately after injection. The infected embryos were incubated at 30°C for 96 h. The infected embryos were monitored for disease symptoms and survival under a stereomicroscope twice a day up to 4 days post‐injection. Absence of heartbeat and movement was interpreted as a sign of death. All experiments were performed thrice.

[5] = molecular target: T1, PLY; format: cell-based; remark: listed apart in the source
[6] = molecular target: T2, LLO (Listeria monocytogenes serovar 1/2a, UniProt P13128); assay: ELISA, binding of plate-bound MRC-1 peptides to LLO; details: plate-bound peptide, LLO 0–0.5 μM
Description: Briefly, 96‐well flat‐bottomed plates (Sigma, UK) were coated overnight with 10 μM of MRC‐1 peptides in coating buffer (15 mM Na2CO3, 35 mM NaHCO3, pH 9.6). Wells were blocked with 200 μl of 10% (v/v) FBS in PBS for 2 h and then washed three times with PBS, 0.05% (v/v) Tween 20 (Sigma). 50 μl of purified PLY, LLO, and SLO (0–1 μM) in PBS was added and incubated at 37°C for 1 h. 1 μM BSA was added to control wells. Wells were washed with PBS and bound proteins were detected by adding 100 μl of mouse α‐PLY (1:1,000), mouse α‐SLO (1:400), and rabbit α‐LLO (1:1,500) (Abcam), respectively, in blocking buffer. Plates were incubated with 100 μl of secondary anti‐rabbit/anti‐mouse IgG HRP (1:2,000) dilution in blocking buffer. Bound antibodies were detected by adding 100 μl of tetramethylbenzidine substrate solution for 30 min. Phosphoric acid (1 M) was used as the stop solution and absorbance was measured at 450 nm.

[7] = molecular target: T2, LLO; assay: LDH cytotoxicity assay, THP-1 macrophages, LLO; format: cell-based; details: 100 μM, 18 h; for % cytotoxicity relative to positive control (lysis buffer), LDH: THP-1, LLO 0.5 μg/ml
Description: Human monocytic leukemia THP‐1 cells (ATCC TIB‐202) were cultivated in R10 medium and maintained at density of 10^6 cells/ml. For differentiation into macrophages, THP‐1 cells were treated for 48 h with 20 ng/ml of phorbol myristate acetate (Sigma).
Cytotoxicity was determined by measuring the activity of lactate dehydrogenase enzyme released into the culture supernatant using the Cytotoxicity Detection kit (Roche) according to the manufacturer's instructions. The percentage cytotoxicity was calculated by ratio to 100% lysis control (0.1% saponin).

[8] = molecular target: T3, SLO (Streptococcus pyogenes serotype M1, UniProt P0C0I3); format: binding
[9] = test system: S. pneumoniae strain T4; assay: Hemolytic activity of whole bacteria, S. pneumoniae T4; format: cell-based, Streptococcus pneumoniae; details: 100 μM peptide
Description: (§1) Human blood from anonymous healthy donors (obtained from Karolinska University Hospital) was diluted 1:100 in PBS with 0.5 mM DTT and mixed 1:1 with twofold serial dilutions of 10^8 CFUs of bacteria or 1 μg/ml purified bacterial toxins in 96‐well plates. The MRC‐1 peptides were serially diluted 10‐fold (1–1,000 μM) in PBS and added to the wells prior to addition of blood. The blood was co‐incubated with whole bacteria or purified toxins at 37°C for 1 h, and after 50 min, 0.1% triton X‐100 was added to the positive control wells. Cells were spun down at 400 g for 15 min and the absorbance of the supernatants was measured at 540 nm in a microplate reader. Percentage of lysis compared to the toxin alone was calculated. All samples were assayed in triplicates.

[10] = molecular target: T3, SLO; format: cell-based
[11] = molecular target: T1, PLY; format: cell-based; remark: listed apart in the source
[12] = molecular target: T1, PLY; format: binding
[13] = test system: S. pneumoniae T4; assay: Bacterial invasion assay, 3D lung epithelial models, CFU after gentamicin; format: cell-based, Streptococcus pneumoniae; details: for Mean Colonies at 100X dil, bacterial invasion of lung epithelium models / % entry bacteria= (bacteria uptaken/Input)*100: T4, MOI 10, 2h, 100 μM peptide
[14] = Lung histology (H&E) and clinical symptoms after intranasal administration; details: mice
Description: (F) Hematoxylin and eosin (H&E) staining of mouse lungs at 24 h post intranasal

[15] = molecular target: T2, LLO; assay: Hemolysis assay with purified LLO; details: 1 μg/ml toxin
Description: as §1

T1 sequence (P0C2J9 whole entry, looked up): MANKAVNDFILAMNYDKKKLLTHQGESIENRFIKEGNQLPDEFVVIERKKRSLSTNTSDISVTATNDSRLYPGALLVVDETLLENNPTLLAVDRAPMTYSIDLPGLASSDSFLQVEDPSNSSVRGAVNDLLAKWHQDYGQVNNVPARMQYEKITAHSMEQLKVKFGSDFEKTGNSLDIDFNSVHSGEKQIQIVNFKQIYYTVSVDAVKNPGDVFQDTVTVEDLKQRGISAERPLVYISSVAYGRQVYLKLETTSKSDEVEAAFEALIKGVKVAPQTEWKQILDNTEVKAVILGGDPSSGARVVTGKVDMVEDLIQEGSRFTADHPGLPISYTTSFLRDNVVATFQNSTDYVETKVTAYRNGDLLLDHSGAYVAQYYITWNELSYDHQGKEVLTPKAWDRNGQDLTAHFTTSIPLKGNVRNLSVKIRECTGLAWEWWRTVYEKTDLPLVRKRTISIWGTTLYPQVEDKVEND
T2 sequence (P13128 25-529): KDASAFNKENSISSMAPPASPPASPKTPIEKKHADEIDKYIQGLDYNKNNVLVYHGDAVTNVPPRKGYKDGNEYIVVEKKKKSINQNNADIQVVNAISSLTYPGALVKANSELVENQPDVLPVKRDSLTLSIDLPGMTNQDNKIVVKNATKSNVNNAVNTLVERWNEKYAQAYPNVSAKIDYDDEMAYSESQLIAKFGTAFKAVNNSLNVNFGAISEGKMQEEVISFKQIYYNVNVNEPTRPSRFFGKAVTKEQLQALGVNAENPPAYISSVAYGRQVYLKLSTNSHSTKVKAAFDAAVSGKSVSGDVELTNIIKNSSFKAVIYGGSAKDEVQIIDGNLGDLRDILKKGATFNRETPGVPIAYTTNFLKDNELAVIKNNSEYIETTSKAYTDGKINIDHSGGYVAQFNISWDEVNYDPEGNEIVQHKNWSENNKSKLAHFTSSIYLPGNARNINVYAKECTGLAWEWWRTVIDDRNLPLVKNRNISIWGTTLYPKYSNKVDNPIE
T3 sequence (P0C0I3 34-571 limits assumed): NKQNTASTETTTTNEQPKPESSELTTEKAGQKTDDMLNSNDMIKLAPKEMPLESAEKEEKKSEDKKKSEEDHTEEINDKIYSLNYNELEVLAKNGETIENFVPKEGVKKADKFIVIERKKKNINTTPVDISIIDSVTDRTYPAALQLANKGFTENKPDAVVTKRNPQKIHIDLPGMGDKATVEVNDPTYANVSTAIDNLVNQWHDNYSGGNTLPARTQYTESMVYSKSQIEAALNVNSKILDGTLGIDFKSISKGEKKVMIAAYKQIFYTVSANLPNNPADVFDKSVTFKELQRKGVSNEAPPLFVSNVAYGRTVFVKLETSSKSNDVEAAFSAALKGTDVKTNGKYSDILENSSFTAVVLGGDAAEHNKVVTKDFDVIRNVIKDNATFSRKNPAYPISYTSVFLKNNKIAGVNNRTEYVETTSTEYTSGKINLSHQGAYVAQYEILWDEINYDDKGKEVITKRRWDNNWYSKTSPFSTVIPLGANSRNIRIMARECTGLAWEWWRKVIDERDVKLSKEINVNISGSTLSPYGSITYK

## FTWSDGSPVSYEN [P2]
[1]
  hemolytic activity of L. monocytogenes type 1: significantly reduced
[2]
  expression of LC3B-I and LC3B-II, western blotting: induced higher expression
[3]
  release of IL‐8, TNF‐α and IL‐12 by THP-1 macrophages, PLY: significantly reduced
[4]
  survival of infected zebrafish embryos: significantly improved the survival
[5]
  inhibition of PLY-induced hemolysis: up to 50%
  inhibition of hemolysis induced by purified PLY: up to 50%
[5]; read-out: ED50 (median effective dose) vs purified PLY, human, blood, 60 min
  IC50: 6.6 µM
[6]
  binding to LLO in ELISA: bound dose‐dependently
[7]; THP-1, 0.5 μg/ml toxin
  cell death of macrophages induced by LLO, LDH release: significantly reduced cell death
[7]; experiment 1 of 4
  % cytotoxicity relative to positive control (lysis buffer), LDH: 50.96%
[7]; experiment 2 of 4
  % cytotoxicity relative to positive control (lysis buffer), LDH: 55.95%
[7]; experiment 3 of 4
  % cytotoxicity relative to positive control (lysis buffer), LDH: 54.18%
[7]; experiment 4 of 4
  % cytotoxicity relative to positive control (lysis buffer), LDH: 52.24%
[8]
  binding to SLO in ELISA: bound dose‐dependently
[9]
  hemolytic activity of pneumococcal strain T4: significantly reduced
[9]; T4 312500 CFU/ml, experiment 1 of 3
  %hemolytic activity relative to positive control (0.1% Triton X): -0.1%
[9]; T4 312500 CFU/ml, experiment 2 of 3
  %hemolytic activity relative to positive control (0.1% Triton X): 4%
[9]; T4 312500 CFU/ml, experiment 3 of 3
  %hemolytic activity relative to positive control (0.1% Triton X): 4.3%
[9]; T4 625000 CFU/ml, experiment 1 of 3
  %hemolytic activity relative to positive control (0.1% Triton X): -0.4%
[9]; T4 625000 CFU/ml, experiment 2 of 3
  %hemolytic activity relative to positive control (0.1% Triton X): 4.5%
[9]; T4 625000 CFU/ml, experiment 3 of 3
  %hemolytic activity relative to positive control (0.1% Triton X): 4.7%
[9]; T4 12500000 CFU/ml, experiment 1 of 3
  %hemolytic activity relative to positive control (0.1% Triton X): -0.7%
[9]; T4 12500000 CFU/ml, experiment 2 of 3
  %hemolytic activity relative to positive control (0.1% Triton X): 4.6%
[9]; T4 12500000 CFU/ml, experiment 3 of 3
  %hemolytic activity relative to positive control (0.1% Triton X): 4.6%
[9]; T4 25000000 CFU/ml, experiment 1 of 3
  %hemolytic activity relative to positive control (0.1% Triton X): 0.2%
[9]; T4 25000000 CFU/ml, experiment 2 of 3
  %hemolytic activity relative to positive control (0.1% Triton X): 4.4%
[9]; T4 25000000 CFU/ml, experiment 3 of 3
  %hemolytic activity relative to positive control (0.1% Triton X): 20%
[9]; T4 50000000 CFU/ml, experiment 1 of 3
  %hemolytic activity relative to positive control (0.1% Triton X): 15.6%
[9]; T4 50000000 CFU/ml, experiment 2 of 3
  %hemolytic activity relative to positive control (0.1% Triton X): 19.9%
[9]; T4 50000000 CFU/ml, experiment 3 of 3
  %hemolytic activity relative to positive control (0.1% Triton X): 19.6%
[9]; T4 100000000 CFU/ml, experiment 1 of 3
  %hemolytic activity relative to positive control (0.1% Triton X): 32%
[9]; T4 100000000 CFU/ml, experiment 2 of 3
  %hemolytic activity relative to positive control (0.1% Triton X): 30.8%
[9]; T4 100000000 CFU/ml, experiment 3 of 3
  %hemolytic activity relative to positive control (0.1% Triton X): 19.1%
[10]
  release of IL‐8, TNF‐α and IL‐12 by THP-1 macrophages, SLO: significantly reduced
[10]; 100uM, 18 h
  IL-8 levels in THP-1 macrophages: 426.5 pg/mL and 475.1 pg/mL and 490.7 pg/mL
[11]
  loss of GFP expression in 3D lung epithelial model: significantly lower
[12]
  binding to PLY in ELISA: bind dose‐dependently
[13]; T4, 100 μM peptide, 2 h
  number of invading bacteria in 3D lung epithelial model: significantly reduced
[13]; biological replicate n=1
  Mean Colonies at 100X dil, bacterial invasion of lung epithelium models: 13.3
[13]; n=1
  % entry bacteria= (bacteria uptaken/Input)*100: 2.25%
[13]; n=2
  % entry bacteria= (bacteria uptaken/Input)*100: 2.59%
  Mean Colonies at 100X dil, bacterial invasion of lung epithelium models: 15.3
[13]; n=3
  % entry bacteria= (bacteria uptaken/Input)*100: 2.54%
  Mean Colonies at 100X dil, bacterial invasion of lung epithelium models: 15
[14]; 24 h post intranasal administration, 5 µg peptide/mouse
  toxicity by lung histology analysis (H&E): not toxic
[14]; 24 h post‐administration
  clinical symptoms: did not develop any clinical symptoms
[15]; at concentrations ranging from 10 to 100 μM
  inhibition of hemolysis induced by purified LLO: up to 50%
[15]; read-out: ED50 (median effective dose) vs purified LLO, hemolysis, regression analysis
  IC50: 22.3 µM
